# Experimental data: patent EP0007672A1, “Isocyanoalkenes, process and useful intermediates for their preparation, pharmaceutical and fungicidal preparations containing those isocyanoalkenes and the use of the fungicidal preparations in agriculture” (GIST-BROCADES N.V., priority 1978, dated 1980)
# Where two headings read alike, the source gives them in different places.
# Tests used:
# Test in all cases: MIC (Minimum Inhibitory Concentration)
# Type in all cases: cell-based
# [1] = test system: Trichophyton mentagrophytus
# [2] = test system: Candida albicans
# [3] = test system: Trichophyton quickeaneum; details: read-out: MIC values
# [4] = test system: Trichophyton equinum
# [5] = test system: Trichophyton tonsurans; details: Trichophyton tonsurans 561-50; read-out: MIC values
# [6] = test system: Trichophyton verrucosum
# [7] = test system: Streptococcus haemolyticus; details: read-out: MIC values
# [8] = test system: Trichophyton soudanese joyeux; details: read-out: MIC values
# [9] = test system: Trichophyton violoceum; details: read-out: MIC values
# [10] = test system: Trichophyton schoenleinii; details: read-out: MIC values
# [11] = test system: Trichophyton rubrum
# [12] = test system: Pasteurella multocida; details: read-out: MIC values
# [13] = Trichophyton mentagrophytus 367-68, read-out: MIC values
# [14] = Trichophyton mentagrophytus 421-67, read-out: MIC values
# [15] = Trichophyton mentagrophytus A 3252, read-out: MIC values
# [16] = Trichophyton mentagrophytus R 177, read-out: MIC values
# [17] = Trichophyton mentagrophytus R 178, read-out: MIC values
# [18] = Trichophyton mentagrophytus RRL 305, read-out: MIC values
# [19] = Candida albicans A 7, read-out: MIC values
# [20] = Candida albicans A 3140, read-out: MIC values
# [21] = Candida albicans A 3141, read-out: MIC values
# [22] = Candida albicans A 3142, read-out: MIC values
# [23] = Candida albicans A 3143, read-out: MIC values
# [24] = Candida albicans A 3144, read-out: MIC values
# [25] = Candida albicans A 3145, read-out: MIC values
# [26] = Candida albicans A 3165, read-out: MIC values
# [27] = Candida albicans A 3166, read-out: MIC values
# [28] = Candida albicans A 3167, read-out: MIC values
# [29] = Candida albicans A 3168, read-out: MIC values
# [30] = Candida albicans A 3169, read-out: MIC values
# [31] = Candida albicans A 3171, read-out: MIC values
# [32] = Candida albicans A 3184, read-out: MIC values
# [33] = Candida albicans A 3190, read-out: MIC values
# [34] = Candida albicans A 3191, read-out: MIC values
# [35] = Candida albicans A 3192, read-out: MIC values
# [36] = Candida albicans A 3194, read-out: MIC values
# [37] = Candida albicans A 3196, read-out: MIC values
# [38] = Trichophyton equinum 441-51, read-out: MIC values
# [39] = Trichophyton equinum 856-71, read-out: MIC values
# [40] = Trichophyton verrucosum 134-66, read-out: MIC values
# [41] = Streptococcus haemolyticus A 1088
# [42] = Trichophyton soudanese joyeux 440-63
# [43] = Trichophyton schoenleinii 435-63
# [44] = Trichophyton rubrum 218-65, read-out: MIC values
# [45] = Trichophyton rubrum 494-62, read-out: MIC values
# [46] = Trichophyton rubrum A 810, read-out: MIC values
compound,measurement,setting,value
"[C-]#[N+]C(=Cc1ccc(Cl)cc1)S(=O)(=O)c1ccc(C)cc1 [Example 11, 1-isocyanv-2-(4-chlorophenyl)-1-(4-toluenesulphonyl)-ethene]",MIC,[1]; [13],1.5 mg/L
same,MIC,[1]; [14],6 mg/L
same,MIC,[1]; [15],1.5 mg/L
same,MIC,[1]; [16],3 mg/L
same,MIC,[1]; [17],> 100 mg/L
same,MIC,[1]; [18],1.5 mg/L
same,MIC,[2]; [19],0.8 mg/L
same,MIC,[2]; [20],0.4 mg/L
same,MIC,[2]; [21],0.8 mg/L
same,MIC,[2]; [22],1.5 mg/L
same,MIC,[2]; [23],1.5 mg/L
same,MIC,[2]; [24],1.5 mg/L
same,MIC,[2]; [25],1.5 mg/L
same,MIC,[2]; [26],1.5 mg/L
same,MIC,[2]; [27],1.5 mg/L
same,MIC,[2]; [28],1.5 mg/L
same,MIC,[2]; [29],0.8 mg/L
same,MIC,[2]; [30],1.5 mg/L
same,MIC,[2]; [31],1.5 mg/L
same,MIC,[2]; [32],1.5 mg/L
same,MIC,[2]; [33],1.5 mg/L
same,MIC,[2]; [34],1.5 mg/L
same,MIC,[2]; [35],1.5 mg/L
same,MIC,[2]; [36],1.5 mg/L
same,MIC,[2]; [37],3 mg/L
same,MIC,[3]; Trichophyton quickeaneum A 2040,1.5 mg/L
same,MIC,"[4]; Trichophyton equinum 182-76, read-out: MIC values",3 mg/L
same,MIC,[4]; [38],0.4 mg/L
same,MIC,[4]; [39],< 0.05 mg/L
same,MIC,[5],6 mg/L
same,MIC,[6]; [40],< 0.05 mg/L
same,MIC,"[6]; Trichophyton verrucosum A 2922, read-out: MIC values",0.4 mg/L
same,MIC,[7]; [41],3 mg/L
same,MIC,[8]; [42],6 mg/L
same,MIC,[9]; Trichophyton violoceum 442-62,0.1 mg/L
same,MIC,[10]; [43],0.4 mg/L
same,MIC,[11]; [44],1.5 mg/L
same,MIC,[11]; [45],1.5 mg/L
same,MIC,[11]; [46],0.8 mg/L
same,MIC,[12]; Pasteurella multocida A 723,6 mg/L
"[C-]#[N+]C(=C(C)c1ccc([N+](=O)[O-])cc1)S(=O)(=O)c1ccc(C)cc1 [Example 22, 1-isocyano-2-(4-nitrophenyl)-1-(4-toluenesulphonyl)-1-propene]",MIC,[1]; [13],3 mg/L
same,MIC,[1]; [14],12.5 mg/L
same,MIC,[1]; [15],12.5 mg/L
same,MIC,[1]; [16],6 mg/L
same,MIC,[1]; [17],6 mg/L
same,MIC,[1]; [18],6 mg/L
same,MIC,[2]; [19],1.5 mg/L
same,MIC,[2]; [20],3 mg/L
same,MIC,[2]; [21],3 mg/L
same,MIC,[2]; [22],3 mg/L
same,MIC,[2]; [23],1.5 mg/L
same,MIC,[2]; [24],3 mg/L
same,MIC,[2]; [25],3 mg/L
same,MIC,[2]; [26],3 mg/L
same,MIC,[2]; [27],1.5 mg/L
same,MIC,[2]; [28],1.5 mg/L
same,MIC,[2]; [29],3 mg/L
same,MIC,[2]; [30],3 mg/L
same,MIC,[2]; [31],3 mg/L
same,MIC,[2]; [32],1.5 mg/L
same,MIC,[2]; [33],3 mg/L
same,MIC,[2]; [34],3 mg/L
same,MIC,[2]; [35],3 mg/L
same,MIC,[2]; [36],1.5 mg/L
same,MIC,[2]; [37],3 mg/L
same,MIC,[4]; [38],1.5 mg/L
same,MIC,[4]; [39],25 mg/L
same,MIC,[5],1.5 mg/L
same,MIC,[6]; [40],1.5 mg/L
same,MIC,[7]; [41],0.8 mg/L
same,MIC,[8]; [42],3 mg/L
same,MIC,[9]; Trichophyton violoceum 442-62,3 mg/L
same,MIC,[10]; [43],3 mg/L
same,MIC,[11]; [44],3 mg/L
same,MIC,[11]; [45],6 mg/L
same,MIC,[11]; [46],3 mg/L
same,MIC,[12]; Pasteurella multocida A 723,6 mg/L
"[C-]#[N+]C(=C1C2CC3CC(C2)CC1C3)S(=O)(=O)c1ccc(C)cc1 [Example 2, a-adamantylidene-a-(4-toluenesulphonyl) methylisocyanide]",MIC,"[1]; read-out: MIC values, Trichophyton mentagrophytus 367-68",> 100 mg/L
same,MIC,"[1]; read-out: MIC values, Trichophyton mentagrophytus 421-67",50 mg/L
same,MIC,"[1]; read-out: MIC values, Trichophyton mentagrophytus A 3252",> 100 mg/L
same,MIC,"[1]; read-out: MIC values, Trichophyton mentagrophytus R 177",100 mg/L
same,MIC,"[1]; read-out: MIC values, Trichophyton mentagrophytus R 178",> 100 mg/L
same,MIC,"[1]; read-out: MIC values, Trichophyton mentagrophytus RRL 305",50 mg/L
same,MIC,"[2]; read-out: MIC values, Candida albicans A 7",0.8 mg/L
same,MIC,"[2]; read-out: MIC values, Candida albicans A 3140",12.5 mg/L
same,MIC,"[2]; read-out: MIC values, Candida albicans A 3141",> 100 mg/L
same,MIC,"[2]; read-out: MIC values, Candida albicans A 3142",> 100 mg/L
same,MIC,"[2]; read-out: MIC values, Candida albicans A 3143",0.8 mg/L
same,MIC,"[2]; read-out: MIC values, Candida albicans A 3144",> 100 mg/L
same,MIC,"[2]; read-out: MIC values, Candida albicans A 3145",> 100 mg/L
same,MIC,"[2]; read-out: MIC values, Candida albicans A 3165",50 mg/L
same,MIC,"[2]; read-out: MIC values, Candida albicans A 3166",50 mg/L
same,MIC,"[2]; read-out: MIC values, Candida albicans A 3167",25 mg/L
same,MIC,"[2]; read-out: MIC values, Candida albicans A 3169",1.5 mg/L
same,MIC,"[2]; read-out: MIC values, Candida albicans A 3171",> 100 mg/L
same,MIC,"[2]; read-out: MIC values, Candida albicans A 3184",0.8 mg/L
same,MIC,"[2]; read-out: MIC values, Candida albicans A 3190",100 mg/L
same,MIC,"[2]; read-out: MIC values, Candida albicans A 3192",1.5 mg/L
same,MIC,"[2]; read-out: MIC values, Candida albicans A 3194",> 100 mg/L
same,MIC,"[2]; read-out: MIC values, Candida albicans A 3196",> 100 mg/L
same,MIC,[3]; Trichophyton,> 100 mg/L
same,MIC,"[4]; read-out: MIC values, Trichophyton equinum 182-76",50 mg/L
same,MIC,"[4]; read-out: MIC values, Trichophyton equinum 441-51",25 mg/L
same,MIC,"[4]; read-out: MIC values, Trichophyton equinum 856-71",> 100 mg/L
same,MIC,"[6]; read-out: MIC values, Trichophyton verrucosum 134-66",25 mg/L
same,MIC,"[6]; read-out: MIC values, Trichophyton verrucosum A 2922",< 0.05 mg/L
same,MIC,[7]; Streptococcus,50 mg/L
same,MIC,[8]; Trichophyton,50 mg/L
same,MIC,[9]; Trichophyton,50 mg/L
same,MIC,[10]; Trichophyton schoenleinii,25 mg/L
same,MIC,"[11]; read-out: MIC values, Trichophyton rubrum 218-65",< 0.05 mg/L
same,MIC,"[11]; read-out: MIC values, Trichophyton rubrum 494-62",> 100 mg/L
same,MIC,"[11]; read-out: MIC values, Trichophyton rubrum A 810",50 mg/L
same,MIC,[12]; Pasteurella multocida,> 100 mg/L
"[C-]#[N+]C(=Cc1cccn1C)S(=O)(=O)c1ccc(C)cc1 [Example 30, 2-[1-isocyano-1-(4-toluenesulphonyl)-ethen-2-yl]-1-methylpyrrole]",MIC,[1]; [13],50 mg/L
same,MIC,[1]; [14],> 100 mg/L
same,MIC,[1]; [15],> 100 mg/L
same,MIC,[1]; [16],100 mg/L
same,MIC,[1]; [17],> 100 mg/L
same,MIC,[1]; [18],> 100 mg/L
same,MIC,[2]; [19],6 mg/L
same,MIC,[2]; [20],12.5 mg/L
same,MIC,[2]; [21],12.5 mg/L
same,MIC,[2]; [22],12.5 mg/L
same,MIC,[2]; [23],6 mg/L
same,MIC,[2]; [24],6 mg/L
same,MIC,[2]; [25],12.5 mg/L
same,MIC,[2]; [26],6 mg/L
same,MIC,[2]; [27],6 mg/L
same,MIC,[2]; [28],3 mg/L
same,MIC,[2]; [29],12.5 mg/L
same,MIC,[2]; [30],6 mg/L
same,MIC,[2]; [31],12.5 mg/L
same,MIC,[2]; [32],6 mg/L
same,MIC,[2]; [33],12.5 mg/L
same,MIC,[2]; [34],> 100 mg/L
same,MIC,[2]; [35],6 mg/L
same,MIC,[2]; [36],12.5 mg/L
same,MIC,[2]; [37],12.5 mg/L
same,MIC,[4]; [38],0.4 mg/L
same,MIC,[4]; [39],> 100 mg/L
same,MIC,[5],0.4 mg/L
same,MIC,[6]; [40],6 mg/L
same,MIC,[7]; [41],25 mg/L
same,MIC,[8]; [42],6 mg/L
same,MIC,[9]; Trichophyton violoceum 442-62,6 mg/L
same,MIC,[10]; [43],25 mg/L
same,MIC,[11]; [44],50 mg/L
same,MIC,[11]; [45],> 100 mg/L
same,MIC,[11]; [46],50 mg/L
same,MIC,[12]; Pasteurella multocida A 723,25 mg/L
